These are literature values, as cited in EP1935397A1, “Oral and tooth care and cleaning agents for combating halitosis” (Henkel AG & Co. KGaA, priority 2006, dated 2008).

Where two headings read alike, the source gives them in different places.

Regarding Zinkiodid, the Löslichkeit (20°C) was 4500 g/l (20°C). With Zinkbromid, the Löslichkeit (25°C) is 820 g/l (25°C). For `[O-2].[Zn+2]` [Zinkoxid], the Löslichkeit result (temperature not given, result in words) is listed as “Unlöslich”. For Zinknitrat Hexahydrat, the Löslichkeit (20°C) is 1843 g/l (20°C). Turning to Zinknitrat-Tetrahydrat, the Löslichkeit result (20°C, result in words) was “Leicht löslich (20°C)”.

Regarding Zinkacetat-Dihydrat, where the note is “20°C”, the Löslichkeit was 430 g/l (20°C). With Zinkgluconat, the Löslichkeit (20°C) was 100 g/l (20°C). Take Zinksulfat-Monohydrat: the Löslichkeit (20°C) was ~350 g/l (20°C). For Zinkstearat, for the setting “20°C”, the Löslichkeit is 0,9 mg/l (20°C).

Regarding Zinkchlorid, the Löslichkeit (25°C) was 4320 g/l (25°C). Regarding Zinksulfat-Heptahydat, for the setting “20°C”, the Löslichkeit is 960 g/l (20°C). As for Zinkhydroxycarbonat, the Löslichkeit result (20°C, result in words) is “Fast unlöslich (20°C)”.
